Laboratory results published in paper PMC6273789, “Asperpyrone-Type Bis-Naphtho-γ-Pyrones with COX-2–Inhibitory Activities from Marine-Derived Fungus Aspergillus niger” (Molecules, 2016).

These compounds were tested against T1, COX-2 (Ovis aries, UniProt P79208) (assay: COX (ovine) inhibitor screening kit).
T1 construct: gene PTGS2
T1 sequence (P79208 17-603): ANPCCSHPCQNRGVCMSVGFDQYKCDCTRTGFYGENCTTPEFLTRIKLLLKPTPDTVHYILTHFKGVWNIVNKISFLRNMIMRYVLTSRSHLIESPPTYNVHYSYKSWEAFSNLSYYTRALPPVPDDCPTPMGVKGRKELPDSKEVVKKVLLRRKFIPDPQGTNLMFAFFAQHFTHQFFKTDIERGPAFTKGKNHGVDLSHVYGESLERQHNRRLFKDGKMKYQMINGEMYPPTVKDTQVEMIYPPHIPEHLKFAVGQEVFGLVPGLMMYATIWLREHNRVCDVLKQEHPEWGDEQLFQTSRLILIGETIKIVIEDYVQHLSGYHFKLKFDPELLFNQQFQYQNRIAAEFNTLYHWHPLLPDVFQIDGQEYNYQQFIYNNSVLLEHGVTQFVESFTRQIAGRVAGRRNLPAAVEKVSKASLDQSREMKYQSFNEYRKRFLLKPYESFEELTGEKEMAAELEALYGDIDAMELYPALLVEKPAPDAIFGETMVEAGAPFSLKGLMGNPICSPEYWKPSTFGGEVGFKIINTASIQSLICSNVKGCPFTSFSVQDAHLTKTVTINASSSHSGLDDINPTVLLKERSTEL
Format: biochemical

Row | IC50 | Compound
1 | 11.1 µM | COc1cc(OC)c2c(O)c3c(=O)cc(C)oc3c(-c3c(O)cc4cc5c(c(O)c4c3OC)C(=O)CC(C)(O)O5)c2c1 (stereo not drawn) [compound 3, aurasperone F]
2 | 6.4 µM | COc1cc(OC)c2c(O)c3c(=O)cc(C)oc3c(-c3c(O)cc4cc(O)c5c(=O)cc(C)oc5c4c3OC)c2c1 [compound 8, asperpyrone A]
3 | 4.2 µM | COc1cc(OC)c2c(O)c3c(c(-c4c(O)cc5cc6c(c(O)c5c4OC)C(=O)CC(C)(O)O6)c2c1)OC(C)(O)CC3=O (stereo not drawn) [compound 6, aurasperone C]
